# Measurements: ChEMBL document CHEMBL1125280, “Direct prediction of dissociation constants (pKa's) of clonidine-like imidazolines, 2-substituted imidazoles, and 1-methyl-2-substituted-imidazoles from 3D structures using a comparative molecular field analysis (CoMFA) approach” (J Med Chem, 1991)
# Experiment: Ionization constant (pKa)
# Type: physicochemical
row,Compound,pKa
1,Cc1cc(Br)cc(C)c1N=C1NCCN1,10.2
2,Cc1cccc(C)c1N=C1NCCN1,10.5
3,c1ccc(NC2=NCCN2)cc1,10.1
4,O=[N+]([O-])c1cc(Cl)c(N=C2NCCN2)c(Cl)c1,6.86
5,Clc1cc(Cl)c(N=C2NCCN2)c(Cl)c1,7.75
6,Nc1ncc[nH]1,8.46
7,Brc1ncc[nH]1,3.79
8,Cc1cc(C)c(N=C2NCCN2)c(C)c1,10.8
9,Cc1cc(Cl)c(N=C2NCCN2)c(Cl)c1,8.29
10,Clc1cccc(N=C2NCCN2)c1Cl,8.55
11,Fc1cccc(Cl)c1N=C1NCCN1,8.01
12,Fc1ncc[nH]1,2.4
13,Cc1ncc[nH]1,7.86
14,Brc1cccc(Br)c1N=C1NCCN1,7.8
15,CCc1cccc(CC)c1NC1=NCCN1,10.6
16,Cn1ccnc1[N+](=O)[O-],-0.48
17,CCc1ncc[nH]1,7.73
18,Cc1cc(Cl)cc(Cl)c1N=C1NCCN1,9.03
19,Fc1cccc(F)c1N=C1NCCN1,8.18
20,Cn1ccnc1Br,3.82
21,Cc1ccccc1N=C1NCCN1,10.2

row,Compound,pKa
1,CSc1ncc[nH]1,5.95
2,Cn1ccnc1F,2.3
3,Cc1cc(Cl)ccc1N=C1NCCN1,9.99
4,Clc1cccc(Br)c1N=C1NCCN1,7.93
5,Clc1ccccc1N=C1NCCN1,9.15
6,Cc1cccc(Cl)c1N=C1NCCN1,9.4
7,Cc1ccc(N=C2NCCN2)c(C)c1,10.6
8,c1ccn(-c2ncc[nH]2)c1,5.36
9,Clc1ccc(Cl)c(N=C2NCCN2)c1,8.5
10,Cn1ccnc1N,8.54
11,Cc1cc(Cl)cc(C)c1N=C1NCCN1,10.2
12,Clc1ccc(N=C2NCCN2)c(Cl)c1,8.73
13,COc1cc(Cl)c(N=C2NCCN2)c(Cl)c1,8.57
14,Clc1ncc[nH]1,3.55
15,Clc1cc(Br)cc(Cl)c1N=C1NCCN1,7.72
16,Brc1cc(Br)c(N=C2NCCN2)c(Br)c1,7.46
17,Cc1cc(C)c(N=C2NCCN2)c(Cl)c1,9.59
18,Cn1ccnc1 [1-METHYLIMIDAZOLE],7.12
19,c1ccc(-c2ncc[nH]2)cc1 [2-PHENYLIMIDAZOLE],6.48
20,O=[N+]([O-])c1ncc[nH]1 [AZOMYCIN],-0.81
21,Cc1ccc(NC2=NCCN2)c(Cl)c1 [TOLONIDINE],9.41
